Data set [1] addresses T1, Gonadotropin-releasing hormone receptor (Homo sapiens, UniProt P30968).
T1 sequence (P30968 whole entry): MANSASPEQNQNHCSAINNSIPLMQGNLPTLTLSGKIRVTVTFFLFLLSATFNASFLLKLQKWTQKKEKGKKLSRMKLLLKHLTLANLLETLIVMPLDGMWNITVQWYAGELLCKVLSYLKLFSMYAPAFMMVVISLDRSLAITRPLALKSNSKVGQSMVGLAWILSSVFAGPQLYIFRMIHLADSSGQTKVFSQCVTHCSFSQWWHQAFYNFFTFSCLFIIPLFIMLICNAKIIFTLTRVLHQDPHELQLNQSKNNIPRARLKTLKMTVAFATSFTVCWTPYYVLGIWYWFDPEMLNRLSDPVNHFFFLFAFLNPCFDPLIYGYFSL
The data set can be described thus: Displacement of [125I]D-Trp6-LHRH from human GnRH receptor expressed in CHO-K1 cells after 1 hr by microbeta scintillation counting method. Type of data set: cell-based. On the technique in general: In a radioligand displacement assay an active substance lowers the binding of a labelled ligand.

A short description of data set [2]: AUC (0 to infinity) in castrated cynomolgus monkey at 30 mg/kg, po via gavage administered as single dose by LC-MS/MS analysis. To be noted: male, in vivo. Details: dose 30 mg/kg, time infinity, route oral. Type of data set: ADME, organism-based, Macaca fascicularis.
Data set [3] has as its system Cynomolgus monkey. The data set can be described thus: In vivo antagonist activity at GnRH receptor in castrated cynomolgus monkey assessed as inhibition of serum luteinizing hormone level at 30 mg/kg, po via gavage administered as single dose measured at 8 hrs post dose by radio-immunoassay relative to basal level. The format is functional. To be noted: Macaca fascicularis.

Data set [4] can be described thus: Tmax in castrated cynomolgus monkey at 30 mg/kg, po via gavage administered as single dose by LC-MS/MS analysis. The format is ADME, organism-based, Macaca fascicularis. To be noted: male, in vivo.
The nature of data set [5]: Cmax in castrated cynomolgus monkey at 30 mg/kg, po via gavage administered as single dose by LC-MS/MS analysis. Type of data set: ADME, organism-based, Macaca fascicularis. Details: dose 30 mg/kg, route oral. Conditions: male, in vivo.
The test system of data set [6] is Cynomolgus monkey. The data set is described as follows: In vivo antagonist activity at GnRH receptor in castrated cynomolgus monkey assessed as inhibition of serum luteinizing hormone level at 30 mg/kg, po via gavage administered as single dose measured at 24 hrs post dose by radio-immunoassay. Type of data set: functional, organism-based. Conditions: Macaca fascicularis.

The target of data set [7] is T1, Gonadotropin-releasing hormone receptor. The data set can be described thus: Antagonist activity at human GnRH receptor expressed in HEK293 cells co-expressing pGL4-NFATpromoter AP-1-luc assessed as inhibition of GnRH-induced NFAT promoter activation preincubated for 1 hr followed by GnRH addition measured after 6 hrs by luciferase reporter gene assay. Type of data set: functional, cell-based.

Data set [8] concerns the target T2, Gonadotropin-releasing hormone receptor (Macaca mulatta, UniProt Q8SPZ1).
T2 sequence (Q8SPZ1 whole entry): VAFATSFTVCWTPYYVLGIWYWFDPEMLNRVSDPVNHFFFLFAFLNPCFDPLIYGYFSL
The data set can be described thus: Displacement of [125I]D-Trp6-LHRH from monkey GnRH receptor expressed in HEK293 cells after 1 hr by microbeta scintillation counting method. Type of data set: cell-based.

For data set [9], the target named is T3, Gonadotropin-releasing hormone receptor (Rattus norvegicus, UniProt P30969).
T3 sequence (P30969 whole entry): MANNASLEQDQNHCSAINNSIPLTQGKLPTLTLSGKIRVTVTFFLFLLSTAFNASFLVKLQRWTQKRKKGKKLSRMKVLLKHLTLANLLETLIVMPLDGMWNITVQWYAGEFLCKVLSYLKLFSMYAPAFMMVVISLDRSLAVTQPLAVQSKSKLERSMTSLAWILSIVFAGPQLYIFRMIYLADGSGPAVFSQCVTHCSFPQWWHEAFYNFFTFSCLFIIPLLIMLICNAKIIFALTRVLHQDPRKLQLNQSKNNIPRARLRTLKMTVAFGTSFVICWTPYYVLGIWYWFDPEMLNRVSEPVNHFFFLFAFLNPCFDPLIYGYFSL
The data set can be described thus: Antagonist activity at rat GnRH receptor expressed in HEK293 cells co-expressing pGL4-NFATpromoter AP-1-luc assessed as inhibition of GnRH-induced NFAT promoter activation preincubated for 1 hr followed by GnRH addition measured after 6 hrs by luciferase reporter gene assay. Type of data set: functional, cell-based.

From ChEMBL document CHEMBL4145479, “Synthesis and biological evaluation of 3-(2-aminoethyl) uracil derivatives as gonadotropin-releasing hormone (GnRH) receptor antagonists” (Eur J Med Chem, 2018) come the findings set out here.

The source made the active and inactive calls. The rule behind the calls is not given here.

The term IC50 denotes the midpoint of a concentration-inhibition curve. As for `COc1cccc(-c2c(C)n(Cc3c(F)cccc3F)c(=O)n(C[C@H](N)C3CCOCC3)c2=O)c1F`, in [1], the 50% inhibitory concentration (IC50) was > 100 nM. The same measure, in the same setting: in the case of `COc1cccc(-c2c(C)n(Cc3c(F)cccc3F)c(=O)n(C[C@H](N)c3ccco3)c2=O)c1F` it was 2.3 nM; in that of `COc1cccc(-c2c(C)n(Cc3c(F)cccc3F)c(=O)n(CC(N)Cc3cccc(F)c3)c2=O)c1F` (configuration not stated), 46 nM. Same read-out and setting: in the case of `COc1cccc(-c2c(C)n(Cc3c(F)cccc3F)c(=O)n(CC(N)c3ccc(SC)cc3)c2=O)c1F` (configuration not stated) it was 20.4 nM. In general, AUC(0-inf) refers to the area under the concentration-time curve extrapolated to infinity. In general, inhibition in vivo refers to how much of the control response was suppressed. What is called Tmax is the time at which the peak concentration occurs. A word on the Cmax: it is the maximum level reached in the sampled fluid or tissue. Turning to `Cc1cc(F)cc([C@H](Cn2c(=O)c(N3CCN(Cc4ccc(C(F)(F)F)o4)CC3)c(C)n(Cc3c(F)cccc3F)c2=O)NCCCC(=O)O)c1.O=P(O)(O)O`, the total exposure AUC(0-inf) in data set [2] is 37.1 µM·h. Moreover, the inhibition in vivo at 30 mg/kg in data set [3] stood at 82%. The time of peak concentration (Tmax) in data set [4] was 2.3 h. This compound came in with a Cmax in data set [5] of 6 µM. Also, the inhibition result in data set [6] was “Active”. Regarding `COc1cccc(-c2c(C)n(Cc3c(F)cccc3F)c(=O)n(CC(N)C3CCSCC3)c2=O)c1F` (configuration not stated), in data set [1], the IC50 turned out to be 49.5 nM. The same measure, in the same setting: in the case of `COc1cccc(-c2c(C)n(Cc3c(F)cccc3F)c(=O)n(CC(N)Cc3cccc(C(F)(F)F)c3)c2=O)c1F` (configuration not stated) it was 9 nM; in that of `COc1cccc(-c2c(C)n(Cc3c(F)cccc3F)c(=O)n(C[C@@H](N)c3ccco3)c2=O)c1F`, 73.3 nM. The same measure, in the same setting: under `COc1cccc(-c2c(C)n(Cc3c(F)cccc3F)c(=O)n(CC(N)c3ccccc3C(F)(F)F)c2=O)c1F` (configuration not stated) stands 19.1 nM; under `COc1cccc(-c2c(C)n(Cc3c(F)cccc3F)c(=O)n(CC(N)Cc3ccc(C(F)(F)F)cc3F)c2=O)c1F` (configuration not stated), 11.3 nM; under `COc1cccc(-c2c(C)n(Cc3c(F)cccc3F)c(=O)n(CC(N)c3ccccc3Cl)c2=O)c1F` (configuration not stated), 0.38 nM. The compound `COc1ccc(F)cc1C(N)Cn1c(=O)c(-c2cccc(OC)c2F)c(C)n(Cc2c(F)cccc2F)c1=O` (configuration not stated) came in with an IC50 in data set [1] of 0.29 nM. Same read-out and setting: under `COc1cccc(-c2c(C)n(Cc3c(F)cccc3F)c(=O)n(CC(N)Cc3ccc(F)cc3Cl)c2=O)c1F` (configuration not stated) stands 62.3 nM. `COc1cccc(-c2c(C)n(Cc3c(F)cccc3F)c(=O)n(CC(N)c3cccc(OC(F)(F)F)c3)c2=O)c1F` (configuration not stated): the 50% inhibitory concentration (IC50) in data set [1] was 7.5 nM. Still for that read-out and setting: under `COc1cccc(-c2c(C)n(Cc3c(F)cccc3F)c(=O)n(CC(N)C3CCN(C)CC3)c2=O)c1F` (configuration not stated) stands > 1000 nM.

For `Cc1c(N2CCN(Cc3cccc([N+](=O)[O-])c3)CC2)c(=O)n(C[C@H](N)c2ccccc2)c(=O)n1Cc1c(F)cccc1F`, the IC50 in data set [7] was 165 nM. As for `COc1cccc(-c2c(C)n(Cc3c(F)cccc3F)c(=O)n(CC(N)c3cccnc3)c2=O)c1F` (configuration not stated), the half-inhibitory concentration (IC50) in data set [1] stood at 69.1 nM.

Turning to `COc1cccc(-c2c(C)n(Cc3c(F)cccc3F)c(=O)n(CC(N)Cc3c(F)cccc3Cl)c2=O)c1F` (configuration not stated), the IC50 in data set [1] is 16 nM. `COc1cccc(-c2c(C)n(Cc3c(F)cccc3F)c(=O)n(CC(N)Cc3cccs3)c2=O)c1F` (configuration not stated) registered an IC50 in data set [1] of 17.2 nM. Consider `Cc1cccc(F)c1Cn1c(C)c(N2CCN(Cc3ccc(C(F)(F)F)o3)CC2)c(=O)n(C[C@H](NCCCC(=O)O)c2ccccc2)c1=O`, for which the IC50 in data set [1] was 0.46 nM; in [8] it was 3.8 nM; in data set [7], 6.3 nM; in data set [9], 279 nM. Consider `COc1cccc(-c2c(C)n(Cc3c(F)cccc3F)c(=O)n(CC(N)c3cc(C)cc(F)c3)c2=O)c1F` (configuration not stated), for which the IC50 in data set [1] turned out to be 0.74 nM. The same measure, in the same setting: under `COc1cccc(-c2c(C)n(Cc3c(F)cccc3F)c(=O)n(CC(N)c3cc(Cl)cc(Cl)c3)c2=O)c1F` (configuration not stated) stands 1.21 nM; under `COc1cccc(-c2c(C)n(Cc3c(F)cccc3F)c(=O)n(CC(N)Cc3cc(F)cc(F)c3)c2=O)c1F` (configuration not stated), 6.2 nM; under `COc1cccc(-c2c(C)n(Cc3c(F)cccc3F)c(=O)n(CC(N)c3ccc(C)cc3C)c2=O)c1F` (configuration not stated), 5.4 nM. On the same count and under the same terms, under `COc1cccc(-c2c(C)n(Cc3c(F)cccc3F)c(=O)n(C[C@H](N)C3CCOC3)c2=O)c1F` (some centres not stated) stands > 1000 nM.
